Test results taken from PubChem BioAssay AID2060500 (Molecular Pharmacology Branch, DTP, NCI, 2025).

Tested on: 596521-263-R-J1-PDC complex spheroids, viability % of control
Test: Anticancer human tumor 596521-263-R-J1-PDC patient-derived soft tissue sarcoma cell line growth inhibition [GQUAD]
Settings: for IC50: curve of first compound; for viability, T/C: stronger effect = lower value
How it was run: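 Multi-cell-type spheroids of tumor cells with HUVEC and mesenchymal stem cells, treated with drug combinations. Concentrations descend in half-log steps from near clinical Cmax, or from 10 microM where Cmax is unknown; viability read-out.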

[1] = second compound 0.0316 µM, first compound 0.000999 µM
[2] = second compound 0.0316 µM, first compound 0.00316 µM
[3] = second compound 0.0316 µM, first compound 0.00999 µM
[4] = second compound 0.0316 µM, first compound 0.0316 µM
[5] = second compound 0.0316 µM, first compound 0.0999 µM
[6] = second compound 0.0316 µM, first compound 0.316 µM
[7] = second compound 0.1 µM, first compound 0.000999 µM
[8] = second compound 0.1 µM, first compound 0.00316 µM
[9] = second compound 0.1 µM, first compound 0.00999 µM
[10] = second compound 0.1 µM, first compound 0.0316 µM
[11] = second compound 0.1 µM, first compound 0.0999 µM
[12] = second compound 0.1 µM, first compound 0.316 µM
[13] = second compound 0.316 µM, first compound 0.000999 µM
[14] = second compound 0.316 µM, first compound 0.00316 µM
[15] = second compound 0.316 µM, first compound 0.00999 µM
[16] = second compound 0.316 µM, first compound 0.0316 µM
[17] = second compound 0.316 µM, first compound 0.0999 µM
[18] = second compound 0.316 µM, first compound 0.316 µM
[19] = second compound 1 µM, first compound 0.000999 µM
[20] = second compound 1 µM, first compound 0.00316 µM
[21] = second compound 1 µM, first compound 0.00999 µM
[22] = second compound 1 µM, first compound 0.0316 µM
[23] = second compound 1 µM, first compound 0.0999 µM
[24] = second compound 1 µM, first compound 0.316 µM
[25] = second compound 3.16 µM, first compound 0.000999 µM
[26] = second compound 3.16 µM, first compound 0.00316 µM
[27] = second compound 3.16 µM, first compound 0.00999 µM
[28] = second compound 3.16 µM, first compound 0.0316 µM
[29] = second compound 3.16 µM, first compound 0.0999 µM
[30] = second compound 3.16 µM, first compound 0.316 µM
[31] = second compound 10 µM, first compound 0.000999 µM
[32] = second compound 10 µM, first compound 0.00316 µM
[33] = second compound 10 µM, first compound 0.00999 µM
[34] = second compound 10 µM, first compound 0.0316 µM
[35] = second compound 10 µM, first compound 0.0999 µM
[36] = second compound 10 µM, first compound 0.316 µM
[37] = second compound 0.0316 µM, first compound 0.1 µM
[38] = second compound 0.0316 µM, first compound 1 µM
[39] = second compound 0.0316 µM, first compound 3.16 µM
[40] = second compound 0.0316 µM, first compound 10 µM
[41] = second compound 0.1 µM, first compound 0.1 µM
[42] = second compound 0.1 µM, first compound 1 µM
[43] = second compound 0.1 µM, first compound 3.16 µM
[44] = second compound 0.1 µM, first compound 10 µM
[45] = second compound 0.316 µM, first compound 0.1 µM
[46] = second compound 0.316 µM, first compound 1 µM
[47] = second compound 0.316 µM, first compound 3.16 µM
[48] = second compound 0.316 µM, first compound 10 µM
[49] = second compound 1 µM, first compound 0.1 µM
[50] = second compound 1 µM, first compound 1 µM
[51] = second compound 1 µM, first compound 3.16 µM
[52] = second compound 1 µM, first compound 10 µM
[53] = second compound 3.16 µM, first compound 0.1 µM
[54] = second compound 3.16 µM, first compound 1 µM
[55] = second compound 3.16 µM, first compound 3.16 µM
[56] = second compound 3.16 µM, first compound 10 µM
[57] = second compound 10 µM, first compound 0.1 µM
[58] = second compound 10 µM, first compound 1 µM
[59] = second compound 10 µM, first compound 3.16 µM
[60] = second compound 10 µM, first compound 10 µM
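Note: spheroids exposed to drugs for 7 days before viability reading.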
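Throughout, for viability, T/C: 100% = DMSO vehicle control viability.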

SMILES: CC[C@@]1(O)C(=O)OCc2c1cc1n(c2=O)Cc2cc3c(CN(C)C)c(O)ccc3nc2-1 + Cc1[nH]c2ccc(F)cc2c1-c1nc2c3cccnc3c3ncccc3c2[nH]1
- IC50 (second compound 0.0316 µM): > 0.316 µM
- IC50 (second compound 0.1 µM): > 0.316 µM
- IC50 (second compound 0.316 µM): 0.291 µM
- IC50 (second compound 1 µM): > 0.316 µM
- IC50 (second compound 3.16 µM): 0.277 µM
- IC50 (second compound 10 µM): > 0.316 µM
- viability, T/C [1]: 98.3%
- viability, T/C [2]: 100%
- viability, T/C [3]: 84%
- viability, T/C [4]: 69.5%
- viability, T/C [5]: 64.3%
- viability, T/C [6]: 58.7%
- viability, T/C [7]: 103%
- viability, T/C [8]: 99.1%
- viability, T/C [9]: 92.5%
- viability, T/C [10]: 65.6%
- viability, T/C [11]: 59.6%
- viability, T/C [12]: 53.5%
- viability, T/C [13]: 96.8%
- viability, T/C [14]: 103%
- viability, T/C [15]: 90.7%
- viability, T/C [16]: 78.5%
- viability, T/C [17]: 61%
- viability, T/C [18]: 49%
- viability, T/C [19]: 103%
- viability, T/C [20]: 109%
- viability, T/C [21]: 79.7%
- viability, T/C [22]: 65.7%
- viability, T/C [23]: 58%
- viability, T/C [24]: 51.4%
- viability, T/C [25]: 86.4%
- viability, T/C [26]: 84.1%
- viability, T/C [27]: 81.6%
- viability, T/C [28]: 67.6%
- viability, T/C [29]: 63.2%
- viability, T/C [30]: 48.2%
- viability, T/C [31]: 85.5%
- viability, T/C [32]: 89.9%
- viability, T/C [33]: 70.4%
- viability, T/C [34]: 59.3%
- viability, T/C [35]: 60.9%
- viability, T/C [36]: 50.3%

SMILES: CCc1c2c(nc3ccc(O)cc13)-c1cc3c(c(=O)n1C2)COC(=O)[C@]3(O)CC + Cc1[nH]c2ccc(F)cc2c1-c1nc2c3cccnc3c3ncccc3c2[nH]1
- IC50 (second compound 0.0316 µM): 0.00602 µM
- IC50 (second compound 0.1 µM): 0.00791 µM
- IC50 (second compound 0.316 µM): 0.00532 µM
- IC50 (second compound 1 µM): 0.00842 µM
- IC50 (second compound 3.16 µM): 0.00426 µM
- IC50 (second compound 10 µM): 0.00837 µM
- viability, T/C [1]: 65.8%
- viability, T/C [2]: 54.8%
- viability, T/C [3]: 45.7%
- viability, T/C [4]: 34.3%
- viability, T/C [5]: 19.2%
- viability, T/C [6]: 9.24%
- viability, T/C [7]: 57.3%
- viability, T/C [8]: 61.5%
- viability, T/C [9]: 47.4%
- viability, T/C [10]: 31.1%
- viability, T/C [11]: 21.5%
- viability, T/C [12]: 7.09%
- viability, T/C [13]: 71.4%
- viability, T/C [14]: 54.4%
- viability, T/C [15]: 44%
- viability, T/C [16]: 30.1%
- viability, T/C [17]: 16.1%
- viability, T/C [18]: 9.37%
- viability, T/C [19]: 67%
- viability, T/C [20]: 58.4%
- viability, T/C [21]: 50.3%
- viability, T/C [22]: 29.6%
- viability, T/C [23]: 17.5%
- viability, T/C [24]: 7.61%
- viability, T/C [25]: 61.8%
- viability, T/C [26]: 52.3%
- viability, T/C [27]: 42.1%
- viability, T/C [28]: 31.3%
- viability, T/C [29]: 18.8%
- viability, T/C [30]: 8.52%
- viability, T/C [31]: 56.8%
- viability, T/C [32]: 59.2%
- viability, T/C [33]: 48.6%
- viability, T/C [34]: 29.9%
- viability, T/C [35]: 17%
- viability, T/C [36]: 8.36%

SMILES: COc1cc(C2c3cc4c(cc3C(OC3OC5COC(C)OC5C(O)C3O)C3COC(=O)C23)OCO4)cc(OC)c1O (stereo not drawn) + Cc1[nH]c2ccc(F)cc2c1-c1nc2c3cccnc3c3ncccc3c2[nH]1
- IC50 (second compound 0.0316 µM): 5.37 µM
- IC50 (second compound 0.1 µM): > 10 µM
- IC50 (second compound 0.316 µM): > 10 µM
- IC50 (second compound 1 µM): 5.42 µM
- IC50 (second compound 3.16 µM): 8.31 µM
- IC50 (second compound 10 µM): 0.97 µM
- viability, T/C [4]: 107%
- viability, T/C [37]: 78.9%
- viability, T/C [6]: 78.4%
- viability, T/C [38]: 66.8%
- viability, T/C [39]: 51.6%
- viability, T/C [40]: 45.8%
- viability, T/C [10]: 93%
- viability, T/C [41]: 86.8%
- viability, T/C [12]: 79.3%
- viability, T/C [42]: 66.3%
- viability, T/C [43]: 58.3%
- viability, T/C [44]: 53.3%
- viability, T/C [16]: 93.4%
- viability, T/C [45]: 104%
- viability, T/C [18]: 87.3%
- viability, T/C [46]: 54.1%
- viability, T/C [47]: 57.9%
- viability, T/C [48]: 50.3%
- viability, T/C [22]: 102%
- viability, T/C [49]: 85.2%
- viability, T/C [24]: 79.5%
- viability, T/C [50]: 60.9%
- viability, T/C [51]: 55.7%
- viability, T/C [52]: 44.8%
- viability, T/C [28]: 92.8%
- viability, T/C [53]: 82%
- viability, T/C [30]: 79.3%
- viability, T/C [54]: 60.3%
- viability, T/C [55]: 63.6%
- viability, T/C [56]: 46.4%
- viability, T/C [34]: 67.4%
- viability, T/C [57]: 64.3%
- viability, T/C [36]: 65%
- viability, T/C [58]: 49.2%
- viability, T/C [59]: 43.9%
- viability, T/C [60]: 39.5%

SMILES: O=c1[nH]cc(F)c(=O)[nH]1 + Cc1[nH]c2ccc(F)cc2c1-c1nc2c3cccnc3c3ncccc3c2[nH]1
- IC50 (second compound 0.0316 µM): > 10 µM
- IC50 (second compound 0.1 µM): > 10 µM
- IC50 (second compound 0.316 µM): > 10 µM
- IC50 (second compound 1 µM): > 10 µM
- IC50 (second compound 3.16 µM): > 10 µM
- IC50 (second compound 10 µM): > 10 µM
- viability, T/C [4]: 98.4%
- viability, T/C [37]: 105%
- viability, T/C [6]: 100%
- viability, T/C [38]: 101%
- viability, T/C [39]: 101%
- viability, T/C [40]: 98.3%
- viability, T/C [10]: 100%
- viability, T/C [41]: 101%
- viability, T/C [12]: 101%
- viability, T/C [42]: 105%
- viability, T/C [43]: 94.9%
- viability, T/C [44]: 95.1%
- viability, T/C [16]: 90.8%
- viability, T/C [45]: 104%
- viability, T/C [18]: 106%
- viability, T/C [46]: 113%
- viability, T/C [47]: 118%
- viability, T/C [48]: 81.8%
- viability, T/C [22]: 100%
- viability, T/C [49]: 96.6%
- viability, T/C [24]: 100%
- viability, T/C [50]: 88.9%
- viability, T/C [51]: 93.9%
- viability, T/C [52]: 86.6%
- viability, T/C [28]: 96%
- viability, T/C [53]: 95.4%
- viability, T/C [30]: 88.5%
- viability, T/C [54]: 86.7%
- viability, T/C [55]: 89.1%
- viability, T/C [56]: 82.4%
- viability, T/C [34]: 63.3%
- viability, T/C [57]: 70.6%
- viability, T/C [36]: 80.7%
- viability, T/C [58]: 77.5%
- viability, T/C [59]: 76.4%
- viability, T/C [60]: 72.4%
